In brackets after ≈: the same amount, converted by molar mass. Like-named read-outs stand apart in the source and are kept apart here. Residues, ends and D or L forms follow the SMILES beside them.
Columns and labels:
B. subtilis = experiment: microbe, parasite or virus in culture; conditions: for MIC: Bacillus subtilis
How it was run: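 MICs were scored by eye after 18-20 h static incubation at 37 °C, with bacteria at 5 × 10^5 CFU mL^−1 in MHB. Peptides were serially diluted 2-fold over 12 points, top 128 or 64 μg mL^−1. CAMHB (CLSI) and 1% agarose-MHB variants were also run, at least six replicates.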

[1] = system: human erythrocytes (HRBC); assay type: cell-based
E. coli AID#172 [2] = assay type: in vivo, E. coli in NMRI mice
Protocol: Peritonitis and UTI murine models were performed at the Department of Microbiology & Infection Control, Statens Serum Institute, Copenhagen, Denmark, under approval by the National Committee of Animal Ethics, Denmark, and adhered to the standards of EU Directive 2010/63/EU. The mouse pneumonia model was performed by Evotec Ltd, United Kingdom, under UK Home Office Licenses and with local ethical committee clearance. All animal studies were contracted by Adenium Biotech ApS.
(§1) Peptides were prepared in Ringer’s acetate pH 6.0 (vehicle) at 34 mg mL^−1. Comparator antibiotics included meropenem (Meronem®, AstraZeneca), polymyxin B sulfate (Sigma) and tobramycin (Novartis).
The E. coli peritonitis in vivo model was conducted using an E. coli AID#172 strain in female NMRI mice (Harlan) that were rendered neutropenic by injecting 0.5 mL cyclophosphamide solution (Apodan®) intraperitoneally for 4 days (~200 mg kg^−1) and 1 day (~100 mg kg^−1) prior to inoculation of infection. At time −1 h, mice were inoculated intraperitoneally with 0.5 mL of 2 × 10^6 CFU mL^−1 E. coli AID#172 suspension in the lateral lower quadrant of the abdomen. […] CFU counts were determined from blood and peritoneal fluid at 0 and 5 h after treatment. The mice were anesthetized with Zoletil® and blood was collected by axillary cut down. The mice were killed by cervical dislocation, a total of 2 mL sterile saline was injected i.p. and the abdomen gently massaged before it was opened, fluid sampled with a pipette, and collected for CFU counts on agar.

E. coli AID#172 [3] = assay type: in vivo, E. coli in NMRI mice; remark: listed apart in the source
Protocol: as §1
The E. coli thigh infection in vivo model was conducted using an E. coli AID#172 strain in female NMRI mice (Taconic) that were rendered neutropenic as above. At time −1 h, mice were inoculated intramuscularly in the quadriceps femoral muscle close to the femur of the left hind leg with 0.05 mL of a suspension of ~1–5 × 10^7 CFU mL^−1 of E. coli (fresh overnight colonies from 5% Horse Blood Agar plate suspended in sterile saline to ~10^8 CFU mL^−1, then diluted) with compound administered intravenously 1 and 12 h post infection (injection over 30 s with 10 mL kg^−1 of 0.6–15 mg kg^−1 AA139 or 5 mg kg^−1 polymyxin B). Colony counts were determined in thighs at 0 and 24 h post infection. The mice were killed by cervical dislocation, the skin was removed and the left hind leg from the hip joint to the hock was collected, cut into at least three parts and frozen at −80 °C. After thawing, the thighs were homogenized in 5 mL saline using a Dispomix® Drive. Each sample was then 10-fold diluted in saline and 20 μL spots were applied on 5% blood agar plates. All agar plates were incubated 18–24 h at 35 °C in ambient air.

[4] = SPR binding to model membrane lipids; set-up: species or system E. coli; conditions: for Binding to DMPC with lipid A versus DMPC alone (SPR): 1 µM and 10 µM, 100 × RU/MW at t = 180 s, n = 3, Student's t-test; for SPR response, Difference (Mean1 - Mean2): DMPC minus 10% lipid A-DMPC, multiple t-tests; for SPR response, Mean2 (10% lipid A-DMPC): mean of n = 3
Protocol: SPR experiments were performed on a Biacore T200 using an L1 sensor chip as previously described. Small unilamellar vesicles (SUVs) were prepared in PBS by sonication and extrusion. Lipids were dissolved in ethanol-free chloroform in 25 mL round-bottom flasks. 10% (mol/mol) of E. coli lipid A, diphosphoryl (Sigma-Aldrich, Cat # L5399) was added into 1,2-dimyristoyl-sn-glycero-3-phosphocholine (DMPC) (Auspep, Cat # 850345P) solution to make lipid A–DMPC mixtures, which were then deposited as a thin film by removal of the solvent (chloroform) under reduced pressure on a rotary evaporator and dried under high vacuum for at least 2 h. PBS was then added into each flask to give a 1 mM (DMPC) suspension, which was sonicated 5 min for five times. […] The SUVs were then injected into the flow cells of the L1 sensor chip for 2000 s at a low flow rate of 2 μL min^−1 to form a bilayer membrane model on the chip surface. Then, a series of peptide solutions (30–0.33 μM in 3-fold dilution), was injected across the flow cells at a flow rate of 30 μL min^−1, having an injection phase of 180 s, and a dissociation phase of 300 s. The binding responses (RU) were normalized by molecular weight (MW) of each peptide. The equation 100 × RU/MW was used for normalization.

[5] = AA139 3.75 mg kg-1, Meropenem 40 mg kg-1, Dunnett's multiple comparisons test
[6] = MDR E. coli AID #172, AA139 3.75 mg kg-1, Meropenem 40 mg kg-1, mean of n = 3

Molecule: CC(C)[C@@H]1NC(=O)[C@H](Cc2ccc(O)cc2)NC(=O)[C@H](Cc2c[nH]c3ccccc23)NC(=O)[C@@H](NC(=O)[C@H](Cc2ccccc2)NC(=O)CN)CSSC[C@@H](C(=O)N[C@@H](CC(N)=O)C(=O)O)NC(=O)[C@H](CCCNC(=N)N)NC(=O)[C@H](CCCNC(=N)N)NC(=O)[C@H](Cc2ccc(O)cc2)NC(=O)[C@@H]2CSSC[C@H](NC1=O)C(=O)N[C@@H](C)C(=O)N[C@@H](CCCNC(=N)N)C(=O)N[C@@H](CCCNC(=N)N)C(=O)N[C@@H](CC(N)=O)C(=O)NCC(=O)N[C@@H](C)C(=O)N[C@@H](CCCNC(=N)N)C(=O)N[C@@H](C(C)C)C(=O)N2 [AA139] (HELM PEPTIDE1{G.F.C.W.Y.V.C.A.R.R.N.G.A.R.V.C.Y.R.R.C.N}$PEPTIDE1,PEPTIDE1,3:R3-20:R3|PEPTIDE1,PEPTIDE1,7:R3-16:R3$$$V2.0)
- BMD MIC (B. subtilis): 2 µg/mL
- Heamolysis HC10, Mean [1]: >300 µg/mL
- Heamolysis HC10 ([1]; red cells of human, 3 h): >300 µg/mL
- ED50 in blood (E. coli AID#172 [2]; mouse, in vivo, iv): 1.55 mg/kg
- ED50 in peritoneal fluid (E. coli AID#172 [2]; mouse, in vivo, iv): 1.85 mg/kg
- ED50 in thigh (E. coli AID#172 [3]; mouse, in vivo, iv): 4.8 mg/kg

Molecule: CNC(C)C1CCC(N)C(OC2C(N)CC(N)C(OC3OCC(C)(O)C(NC)C3O)C2O)O1 (stereo not drawn) [Gentamicin, gentamicin, reference compound]
- MIC (B. subtilis; ATCC6051 / NRS744, read-out: BMD MIC): 0.25 µg/mL (≈ 0.523 µM)
- MIC (B. subtilis; ATCC6633 / NRS231, read-out: BMD MIC): 0.5 µg/mL (≈ 1.05 µM)

Molecule: C[C@@H](O)[C@H]1C(=O)N2C(C(=O)O)=C(S[C@@H]3CN[C@H](C(=O)N(C)C)C3)[C@H](C)[C@H]12 [Meropenem, meropenem, reference compound]
- Change of CFU levels in peritoneal fluid and blood vs vehicle (E. coli AID#172 [2]; 40 mg kg^−1 i.v., not statistically significant): slight reduction
- Blood 5hr, Mean Diff. vehicle vs. treatment (E. coli AID#172 [2]; [5]): 0.6733
- PF 5hr, Mean Diff. vehicle vs. treatment (E. coli AID#172 [2]; [5]): 0.08333
- Blood 5hr bacterial load, Mean (E. coli AID#172 [2]; [6]): 3.163
- PF 5 hr bacterial load, Mean (E. coli AID#172 [2]; [6]): 4.56

Molecule: colistin
- Binding to DMPC with lipid A versus DMPC alone (SPR) [4]: Significant difference
- SPR response, Difference (Mean1 - Mean2) ([4]; 1uM): -12.5563
- SPR response, Mean2 (10% lipid A-DMPC) ([4]; 1uM): 19.5933
- SPR response, Difference (Mean1 - Mean2) ([4]; 10uM): -66.912
- SPR response, Mean2 (10% lipid A-DMPC) ([4]; 10uM): 125.433

Molecule: polymyxin B [PolymyxinB, reference compound]
- Binding to DMPC with lipid A versus DMPC alone (SPR) [4]: Significant difference
- SPR response, Difference (Mean1 - Mean2) ([4]; 1uM): -20.0727
- SPR response, Mean2 (10% lipid A-DMPC) ([4]; 1uM): 48.41
- SPR response, Difference (Mean1 - Mean2) ([4]; 10uM): -95.8227
- SPR response, Mean2 (10% lipid A-DMPC) ([4]; 10uM): 222.033
- Log reduction in thigh CFU compared to saline control (E. coli AID#172 [3]; 5 mg kg^−1, two i.v. doses): 3.13 log

Reference: PMC7311426, “An amphipathic peptide with antibiotic activity against multidrug-resistant Gram-negative bacteria” (Nature Communications, 2020)
